Test results as given in patent publication US20210263120A1, “METHOD OF PERSONALIZED TREATMENT FOR CARDIOMYOPATHY AND HEART FAILURE AND ASSOCIATED DISEASES BY MEASURING EDEMA AND CACHEXIA/SARCOPENIA” (priority 2018, published 2021).

What was measured:
[1] = 100 mg/kg/day orally via drinking water, throughout the treatment period
Description: Dose calculations were based on an average consumption of 5 mL of water/day/mouse. […] The oral dose was chosen to closely mimic the human route of delivery, while not altering the blood pressure, associated with elevated plasma Ang II-aldosterone levels, given the low bioavailability of the drug in rodents. […] The administration was started at 50 days of age to coincide with the previously identified timeline of increased renin activity and development of stage B HF in female DCM mice]. […] All untreated mice (WT and DCM+vehicle) received ad lib 3 ppm hyperchlorinated facility water via an automated watering system (Edstrom, Waterford, Wis., USA).

mouse renin = target: T1, mouse renin (Mus musculus, UniProt P06281); assay: Plasma renin activity assay (FRET) in plasma of treated DCM mice; format: in vivo; settings: DCM mice at 90 days, vs. untreated DCM control
T1 construct: Renin enzymatic activity from EDTA-aprotinin supplemented mouse plasma samples; from tissue
T1 sequence (P06281 72-402): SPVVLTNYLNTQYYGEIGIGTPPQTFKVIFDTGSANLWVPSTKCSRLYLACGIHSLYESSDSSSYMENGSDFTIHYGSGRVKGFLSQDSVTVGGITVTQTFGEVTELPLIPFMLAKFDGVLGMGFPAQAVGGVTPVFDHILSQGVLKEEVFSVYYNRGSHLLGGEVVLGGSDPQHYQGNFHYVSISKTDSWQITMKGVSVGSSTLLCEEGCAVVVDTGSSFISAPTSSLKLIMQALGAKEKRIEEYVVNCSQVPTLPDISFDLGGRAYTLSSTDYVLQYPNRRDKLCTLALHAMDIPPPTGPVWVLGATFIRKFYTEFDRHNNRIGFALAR
Description: Plasma samples were aliquoted and stored at −80° C. until analysis.

[2] = tested on: female mice with dilated cardiomyopathy (DCM); assay: Kaplan-Meier survival of female mice with DCM; format: in vivo, mouse
From the text: (§1) Mice: Dilated cardiomyopathy (DCM) is a major cause of HF, which is associated with pathological dilation of the heart ventricles and declines in heart contractile or systolic function. A well-established, translational mouse model of DCM with reduced ejection fraction (rEF) fulfills the criteria of the American Heart Association Scientific Statement for Animal Models of Heart Failure was utilized in the examples below. The mice used for this study were randomly assigned female littermates with or without (DCM on a C57BL/6 background. DCM mice express a transgene dominant-negative CREB transcription factor specific to cardiomyocytes and consistently develop the progressive stages (A-D) of HF similar to those described for humans. In female mice with DCM renal function remains within a normal range up to the terminal HF stage, as measured by plasma BUN and creatinine. DCM+vehicle (n=28) and DCM+DRI (n=29) were compared to each other. A group of congenic WT mice (n=20) was used for reference. In sub-groups of 90-day old mice (n=8/group), terminal blood was collected via cardiocentesis with ethylenediaminetetraacetic acid (EDTA)-aprotinin syringes to prevent proteolysis of targeted proteins and dissected organs were weighed. The blood samples were centrifuged at 3000 rpm for 20 min at 4° C. Plasma samples were aliquoted and stored at −80° C. until analysis. All analysis and health/death reports were recorded by investigators and animal facility technicians who were blinded to the mouse genotype.
(§2) Aliskiren water was provided ad libitum throughout life.
Statistical Analysis: Statistical analyses were performed with GraphPad Prism 7.04 software (GraphPad Software, La Jolla, Calif., USA) using Student's t-test, one-way ANOVA, or two-way ANOVA with Tukey's multiple comparisons test (unless otherwise indicated) and Pearson's correlation. Survival was analyzed using Kaplan-Meier curves with the Mantel-Cox test. Differences were considered significant if p≤0.05. Data are represented as mean±SE.

[3] = tested on: female mice with dilated cardiomyopathy (DCM); assay: Echocardiography at 90 days in DCM mice; format: in vivo, mouse; settings: 90 days of age
[4] = tested on: female mice with dilated cardiomyopathy (DCM); assay: Body composition by quantitative magnetic resonance (QMR, EchoMRI); format: in vivo, mouse
From the text: as §1, §2
Body Composition: Body composition was objectively quantified by a single-blinded and experienced operator. Bodyweight, free water (systemic extracellular water, ECW), total water, body fat, and lean mass were recorded longitudinally. Mice were measured every tenth day between 50-100 days using quantitative magnetic resonance (QMR) technology with an EchoMRI™ 4-in-1 Analyzer (Echo Medical Systems, Houston, Tex., USA). The machine was calibrated daily per standard operating procedure using the provided canola oil (54.3 g) phantom. Briefly, mice were weighed (Scout Pro SP401, Ohaus Corporation, Pine Brook, N.J., USA) and loaded into a tube restrainer specific to the system. Mice were fully conscious and minimally restrained throughout each 60-90 s recording and were returned to their home enclosure following measurement.

[5] = humans; cited from earlier work
plasma aldosterone = assay: Enzyme immunoassay of plasma aldosterone in treated DCM mice; format: in vivo, mouse; settings: DCM mice at 90 days, vs. untreated DCM control
From the text: as §1, with “The blood samples were centrifuged at 3000 rpm for 20 min at 4° C. Plasma samples were aliquoted and stored at −80° C. until analysis.” left out, “genotype. […]” for “genotype.”

[6] = tested on: female mice with dilated cardiomyopathy (DCM); assay: Morphometric changes (heart and lung weight to body weight) at 90 days; format: in vivo, mouse; settings: 90 days of age
From the text: as §1, with “The blood samples were centrifuged at 3000 rpm for 20 min at 4° C. Plasma samples were aliquoted and stored at −80° C. until analysis.” left out, “genotype. […]” for “genotype.”

With COCCCOc1cc(C[C@@H](C[C@H](N)[C@@H](O)C[C@H](C(=O)NCC(C)(C)C(N)=O)C(C)C)C(C)C)ccc1OC [aliskiren, aliskiren hemifumarate] the “side effects or abnormal clinical observations” value [1] was “no side effects or abnormal clinical observations”, the plasma renin activity (mouse renin) was “significantly reduced elevated plasma renin activity to normal levels” and the “survival gain expressed as human years” value ([2]; assuming an 80-year lifespan) was 5.6 human years. The median survival ([2]; female DCM mice, 100 mg/kg/day from 50 days of age, control 103 days) was 110 days, the “increase in survival vs. control DCM mice” value ([2]; female DCM mice, median survival +DRI vs. control) was 7% and the “absolute increase in EF vs. DCM+vehicle” value [3] was 5%. The heart rate ([3]; anesthetized, control 419±10) was 469±14 bpm, the “cardiac output (CO; mL/min)” value ([3]; vs. DCM control) was “improved” and the “ejection fraction (EF %)” value ([3]; vs. DCM control) was “improved”. The “fractional shortening (FS %)” value ([3]; vs. DCM control) was “improved”, the “systemic extracellular water (ECW)” value ([4]; 100 days of age, QMR) was “significantly higher in DCM+vehicle vs. DCM+DRI mice” and the “combined fat and lean mass (wasting/cachexia)” value ([4]; 100 days, QMR) was “combined losses of fat and lean mass in DCM control mice by 100 days relative to WT (p<0.0001) and DCM+DRI mice”. The lean body mass ([4]; 100 days, QMR) was “significant decline in lean body mass in DCM control mice at 100 days, consistent with sarcopenia, by comparison to DCM+DRI and WT mice”, the “development of Stage C HF / ECW accumulation (edema)” value ([4]; DCM+DRI vs. DCM+vehicle) was “delayed development of Stage C HF” and the body weights ([4]; at 90 days) was “not significantly different between groups”. For the same compound, the body weights ([4]; at 100 days) was “weights appeared to decline in DCM+vehicle controls compared to WT and DCM+DRI mice”, the body fat ([4]; through 100 days, QMR) was “maintenance of fat levels similar to WT through 100 days” and the bioavailability [5] was “low”. For the same compound, the plasma aldosterone levels (plasma aldosterone) was “not modulated by treatment” and the “reduction of the gross increase in cardiac weight of control (DCM+vehicle) mice” value [6] was 20.4%.
